In patent US20030073705A1, “Method of treatment” (priority 2001, published 2003):

Key:
[1] = tested on: patients with Type 2 diabetes and nephropathy; assay: Triple-blind, randomized, placebo-controlled study: primary composite endpoint (doubling of serum creatinine, end stage renal disease or death) and components; type: in vivo, human
Procedure: (§1) The study involved male and female patients ranging in age from 31 to 70 years diagnosed with Type 2 diabetes and nephropathy; the latter defined as two urine albumin:creatinine ratios from a first morning specimen >300 mg/g (34 mg/mmol) (or a 24-hr urine protein >=500 mg (0.5 g/day)) and two serum creatinine values between 1.3 and 3.0 mg/dL (115 and 265 μmol/L) (lower limit of 1.5 mg/dL (133 μmol/L)for males >60 kg). […] Journal of the Renin Angiotensin Aldosterone System 2000;1(4):328-35. Patients were excluded from the study if diagnosed with Type 1 diabetes or nondiabetic renal disease, including renal artery stenosis. Patients with a history of heart failure, myocardial infarction or coronary artery bypass grafting within 1 month, cerebral vascular accident or percutaneous transluminal coronary angioplasty within 6 months or transient ischemic attacks within 1 year prior to enrollment were excluded.
(§2) During the 6-week screening phase, hypertensive patients continued to take their standard antihypertensive therapy. However, in those patients taking angiotensin I converting enzyme inhibitors or angiotensin II receptor antagonists, these agents were discontinued at the beginning of the screening phase and replaced by alternative open-label therapy at the investigator's discretion (diuretic, calcium-channel antagonist, α- or β-blocker, and/or centrally acting agent). […] After an additional 8 weeks, further antihypertensive therapy with agents described above (exclusive of angiotensin I converting enzyme inhibitors or angiotensin II receptor antagonists), were added or increased in dosage to achieve the goal trough sitting blood pressure.
(§3) Throughout the study, patients received standard medical care for treatment of diabetes, including routine measurements of HbAlc and fasting serum glucose concentrations. Study visits were scheduled every 3 months or more frequently if necessary for monitoring trough sitting blood pressure control, changes in laboratory measurements, adverse experiences and endpoints. Patients who discontinued early from blinded study therapy were followed every 3 months until study end for primary and secondary endpoints, blood pressure control and laboratory measurements. Those who could not return for clinic visits were contacted by telephone for endpoints of dialysis, renal transplantation or death.
(§4) The primary efficacy parameter was a composite endpoint of time to the first event of doubling of serum creatinine concentration, end stage renal disease, or death. End stage renal disease was defined as the need for chronic dialysis or renal transplantation. The prespecified secondary endpoint, cardiovascular morbidity and mortality, was a composite of myocardial infarction, stroke, hospitalization for heart failure or unstable angina, coronary or peripheral revascularization, and death from cardiovascular-related causes. Analyses of the components of both the primary and secondary composite endpoints also were prespecified. Other secondary endpoints included progression of renal disease as assessed by the slope of the reciprocal of serum creatinine concentration and changes in proteinuria. (See Mitch W E, Walser M, Buffington G A, Lemann J Jr. A simple method of estimating progression of chronic renal failure. Lancet 1976;2:1326-8.) An independent, blinded endpoint committee adjudicated all potential clinical endpoints occurring from the time of randomization until study termination.
(§5) A supportive, per-protocol analysis excluded patients who violated the inclusion/exclusion criteria, and censored patients 14 days after permanent discontinuation of study medication.

[2] = tested on: patients with Type 2 diabetes and nephropathy; assay: Discontinuation from study therapy and adverse experiences; details: n = 751
Procedure: as §1, §2, §3

[3] = tested on: patients with Type 2 diabetes and nephropathy; assay: Secondary endpoints: proteinuria and progression of renal disease (slope of reciprocal of serum creatinine); type: in vivo, human; details: on-treatment; p=0.01 versus placebo
Procedure: as §1
During the 6-week screening phase, hypertensive patients continued to take their standard antihypertensive therapy. […]
The primary efficacy parameter was a composite endpoint of time to the first event of doubling of serum creatinine concentration, end stage renal disease, or death. […] Other secondary endpoints included progression of renal disease as assessed by the slope of the reciprocal of serum creatinine concentration and changes in proteinuria. […]

[4] = tested on: patients with Type 2 diabetes and nephropathy; assay: Trough sitting blood pressure during the study; type: in vivo, human
Procedure: The results reported here represent a mean follow-up time of 3.4 years.
as §1, §2
as §3, with “death. […]” for “death.”

[5] = tested on: patients with Type 2 diabetes and nephropathy; assay: Secondary endpoint: cardiovascular morbidity and mortality and components; type: in vivo, human
Procedure: as §1, §2, §4, §5

[6] = intention-to-treat, n = 751, mean follow-up 3.4 years
[7] = losartan relative to placebo, p=0.010

2-N-butyl-4-chloro-5-hydroxymethyl-1-[(2′-(1H-tetrazol-5-yl)biphenyl-4-yl)-methyl]imidazole, potassium salt [Losartan]
Patients reaching primary composite endpoint (number) ([1]; intention-to-treat analysis): 327 patients
Patients reaching primary composite endpoint (percent) ([1]; intention-to-treat analysis): 43.5%
Primary composite endpoint, event rate ([1]; intention-to-treat analysis): 15.9 /100 patient years of follow-up
Doubling of sCr, ESRD or Death (composite primary endpoint), patients ([1]; intention-to-treat, losartan 50 to 100 mg once daily +CT, n = 751, mean follow-up 3.4 years): 327 (43.5) n (%)
Death, patients [1, 6]: 158 (21.0) n (%)
Doubling of sCr or ESRD, patients [1, 6]: 226 (30.1) n (%)
Doubling of sCr, patients [1, 6]: 162 (21.6) n (%)
ESRD or Death, patients [1, 6]: 255 (34.0) n (%)
ESRD, patients [1, 6]: 147 (19.6) n (%)
Risk Reduction, Doubling of sCr, ESRD or Death (composite primary endpoint) ([1]; losartan relative to placebo, intention-to-treat, Cox model, p=0.024): 16%
Risk Reduction, ESRD ([1]; losartan relative to placebo, p=0.002): 28%
Risk Reduction, Doubling of sCr ([1]; losartan relative to placebo, p=0.006): 25%
Risk Reduction, Doubling of sCr or ESRD [1, 7]: 21%
Risk Reduction, ESRD or Death [1, 7]: 20%
Risk Reduction, Death ([1]; losartan relative to placebo, p=0.882): −2%
Decrease in risk of primary composite endpoint after correcting for blood pressure ([1]; mean arterial pressure as time-varying covariate, p=0.034): 15%
Risk reduction in primary composite endpoint, per protocol analysis ([1]; patients who remained on treatment throughout the protocol, p=0.008): 22%
Effect in pre-defined subgroups (primary composite, ESRD, ESRD or death) ([1]; patients with baseline serum creatinine greater than 2.0 mg/dL and urine albumin:creatinine ratio greater than 2000 mg/g): particularly beneficial
Discontinued for Any Reason ([2]; discontinuation from study therapy): 341 (45.4) n (%)
Clinical adverse experience causing discontinuation: End Stage Renal Disease [2]: 16 (2.1) n (%)
Clinical adverse experience causing discontinuation: Heart Failure [2]: 23 (3.0) n (%)
Clinical adverse experience causing discontinuation: Myocardial Infarction [2]: 7 (0.9) n (%)
Clinical adverse experience causing discontinuation: Stroke [2]: 9 (1.2) n (%)
Clinical adverse experience causing discontinuation: Worsening renal insufficiency [2]: 8 (1.1) n (%)
Discontinuation from study therapy: Clinical Adverse Experience [2]: 128 (17.0) n (%)
Discontinuation from study therapy: Deaths [2]: 65 (8.7) n (%)
Discontinuation from study therapy: Laboratory Adverse Experience [2]: 21 (2.8) n (%)
Laboratory adverse experience causing discontinuation: Hyperkalemia [2]: 9 (1.2) n (%)
Rate of decline in renal function, median slope of reciprocal of serum creatinine concentration [3]: −0.056 dl/mg/yr
Trough diastolic blood pressure ([4]; at 1 year, average): 78 mmHg
Trough systolic blood pressure ([4]; at 1 year, average): 146 mmHg
Mean arterial pressure ([4]; at 1 year, p<0.001 versus placebo): 100.9 mmHg
Pulse pressure ([4]; at 1 year, p=0.047 versus placebo): 67.8 mmHg
Trough diastolic blood pressure ([4]; at study end, average): 74 mmHg
Trough systolic blood pressure ([4]; at study end, average): 140 mmHg
Mean arterial pressure ([4]; at study end, p=0.59 versus placebo): 95.9 mmHg
Pulse pressure ([4]; at study end, p=0.77 versus placebo): 66.7 mmHg
Trough diastolic blood pressure ([4]; at year 2, average): 77 mmHg
Trough systolic blood pressure ([4]; at year 2, average): 143 mmHg
Pulse pressure ([4]; at year 2, p=0.37 versus placebo): 66.2 mmHg
Mean arterial pressure ([4]; at year 2, p=0.38 versus placebo): 99.1 mmHg
Composite endpoint of cardiovascular morbidity and mortality, difference versus placebo plus conventional therapy ([5]; losartan plus conventional therapy): no significant difference
Patients with myocardial infarction ([5]; mean follow-up 3.4 years): 50 patients
Patients with hospitalization for heart failure ([5]; time to first hospitalization, mean follow-up 3.4 years): 89 patients
Risk reduction, hospitalization for heart failure ([5]; versus placebo, p=0.005): 32%
Risk reduction, myocardial infarction ([5]; versus placebo, p=0.08, did not reach statistical significance): 28%
Risk reduction, fatal or non-fatal cardiovascular event ([5]; versus placebo, p=0.26): 9%
